Test results taken from US5597595A, “Low pH beverage fortified with calcium and vitamin D” (Abbott Laboratories, priority 1995, dated 1997).
Structures can show the parent of a compound that is named as a salt. Where two headings read alike, the source gives them in different places.

What was measured:
[1] = in orange juice and apple juice; cited from earlier work
[2] = Experimental: In this evaluation solubility was determined by a visual examination.
[3] = rats fed three weeks, right femur calcium; cited from earlier work
[4] = without aluminum-containing drugs; normally functioning kidneys; cited from earlier work
[5] = 600-800 IU/day; elderly, homebound or institutionalized individuals; cited from earlier work
[6] = weak acid; cited from earlier work
[7] = Acid-base and calcium binding constants of glycerophosphate; type: physicochemical; conditions: Henderson-Hasselbalch equation; listed as GP
Description: GaGP binds calcium with an approximate formation constant of 1.7. CaGP, when dissolved in water, dissociates readily to provide "free" calcium ions and protonated glycerophosphate species. […] On the other hand, anions, such as malate, tartrate, propionate or succinate, do provide buffer capacity at pH=3.6, and accordingly require more base or acid than GP for final adjustment of pH.

[8] = low birth weight infants; cited from earlier work
[9] = piglets; cited from earlier work
[10] = Titratable acidity of calcium sources; type: physicochemical; conditions: with the exception of calcium chloride
Description: Acidity is desired in the liquid nutritional product of the present invention for several reasons such as: to maintain the calcium salt solubility, to complement flavor, to control microbial growth, and to enhance the role of preservatives, specifically potassium benzoate or sodium benzoate. On the other hand, too much acidity can result in increased tartness and sourness that make the product undesirable from a sensory point of view. […] Titratable acidity is an indication of the total acidity of a beverage.

[11] = Recovery of vitamin D3 at 0-time; type: physicochemical
Description: The low pH beverage, the vitamin D3 emulsion and the powder beverage are saponified with methanolic potassium hydroxide to destroy the fat and release the vitamin D3 for extraction. The saponified samples are extracted with an ether/pentane mixture and the extracts are evaporated to dryness using nitrogen and reconstituted with iso-octane. Sample extracts are eluted on a cleanup HPLC column (cyanopropyl bonded silica), and column switching is used to transfer a "slice" of the eluant containing vitamin D3 onto an additional HPLC analytical column (aminopropyl bonded silica) for final quantitation. The vitamin D3 peak in the sample is quantitated using a linear regression external standard curve.
To compare the initial processing loss and stability of vitamin D3 of each variable with successive batches, two criteria were routinely measured: (1) % recovery of vitamin D3 at 0-time; and (2) half life of vitamin D3 (t1/2).
The % recovery of vitamin D3 of each batch was calculated by dividing the 0-time vitamin D3 result by the theoretical fortification of each batch times 100%. […] As used herein "theoretical fortification" refers to amount of vitamin D3 added to the product. As used herein "0-time" refers to the time of initial vitamin D3 analysis of the product. […]

[12] = tested on: aciduric and acidophilic organisms like certain varieties of yeasts and molds; conditions: pH reduced from 4.5 to 3.0; cited from earlier work
[13] = Aluminum content of calcium sources; conditions: analysis of commercially available compounds
Description: ^1 Values determined by analysis of commercially available compounds.

O=C(CO)[C@@H](O)[C@H](O)[C@H](O)CO [Fructose]
calcium bioavailability from CCM [1]: promoted positive calcium bioavailability

O=C(O)[C@H](O)[C@@H](O)[C@H](O)[C@H](O)CO [D-Gluconic-Acid, D-gluconic acid (hemicalcium salt)]
solubility at 1 month, pH 5.0 [2]: partially Soluble

O=P([O-])([O-])[O-].O=P([O-])([O-])[O-].[Ca+2].[Ca+2].[Ca+2] [Tricalcium Phosphate, tricalcium phosphate]
relative calcium bioavailability as compared to a control [3]: 110%

O=C(O)CC(O)(CC(=O)O)C(=O)O [Calcium Citrate, calcium citrate]
risk of aluminum toxicity [4]: does not pose a risk of aluminum toxicity
relative calcium bioavailability as compared to a control [3]: 110%

vitamin D
effect on calcium balance and fracture risk [5]: improve calcium balance and reduce fracture risk

O=P(O)(O)OCC(O)CO (centres unmarked) [glycerophosphate]
pKf [6]: 6.1
effective acid-base buffering pH range / buffering capacity [7]: insignificant buffering capacity at pH=3.6

Calcium Glycerophosphate [CaGP]
effectiveness as a source of calcium in TPN solutions [8]: as effective as calcium gluconate
effectiveness as a source of calcium in TPN solutions [9]: as effective as calcium gluconate
titratable acidity, in words [10]: lowest titratable acidity

N[C@@H](CS)C(=O)O [Cysteine]
vitamin D3 recovery, in words [11]: did not affect vitamin D3 recovery

O=C(O)c1ccccc1 [benzoic acid]
preservative effect on reducing pH [12]: increased by nearly three times

[Ca+2].[OH-].[OH-] [Calcium Hydroxide]
Aluminum Content [13]: 300-400 parts per million (ppm)
